Assay results published in patent US9688653B2, “Ethoxyphenyl thienyl compounds and methods for the treatment of bacterial infections” (Duke University, priority 2013, dated 2017).
Where two headings read alike, the source gives them in different places.

Experiments:
panel of 68 receptors = settings: for Inhibition across off-target panel: duplicate, upper bound over all targets
[1] = Plasma protein binding, mouse; assay type: in vitro ADME
[2] = system: E. coli strains 536 (K15 serotype), CFT073 (K2 serotype), DS17 (K5 serotype), UTI89 (K1 serotype); test: Visualization of isolated capsule by Alcian blue staining; assay type: cell-based, Escherichia coli; settings: strains 536, CFT073, DS17, UTI89; DU011 200 μM
Method: Visualization of capsule using Alcian blue staining. Overnight cultures of clinical E. coli strains were diluted 1:100 in the presence of 1% DMSO or 100 μM DU011. Cultures were grown for ˜6 hrs (OD600=1.2) at 37° C. Samples were centrifuged at 13,200 RPM for 5 min. The medium was removed and the cells were resuspended in 500 μL of Tris-Acetate (pH 5) and shaken for 1 hr at 37° C. Samples were re-centrifuged, and the supernatant was concentrated ˜100 fold in Amicon 3K microconcentrators.
A major consideration was whether the inhibitors of K1 encapsulation were also able to inhibit the production of other important E. coli Group 2 capsule types. […] Capsular material was isolated from strains 536 (K15 serotype), CFT073 (K2 serotype) and DS17 (K5 serotype), and UTI89 (K1 serotype) in the presence and absence of capsule inhibitors. Capsule was isolated from the same amount of bacteria after growth in vehicle or with inhibitor DU011 (200 μM). Isolated material was separated on a polyacrylamide gel and stained with the cationic dye alcian blue.

in vitro = assay type: cell-based; settings: human
[3] = Plasma protein binding, human; assay type: in vitro ADME
[4] = system: Methicillin Resistant Staphylococcus aureus (MRSA) Strain USA300; test: Growth inhibition of MRSA in buffered TSB medium; assay type: cell-based
Method: FIG. 17. Inhibition of Methicillin Resistant Staphylococcus aureus (MRSA) Strain USA300 by ML317 (DU011). USA300 was grown shaking in TSB medium buffered at different pH as indicated in the figure with the addition of different concentrations of the chemical probe ML317. Growth was measured by absorbance readings as indicated.

E. coli K1 strain UTI89 = test: Secondary assay 2: T7 phage-mediated lysis assay; assay type: cell-based, Escherichia coli
Summary of the method: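 E. coli K1 UTI89 shaken 1.5 h with compound (100–0.39 μM, quadruplicate, 1% DMSO), initial OD600 taken to flag growth effects without phage. T7 phage, whose entry is blocked by K capsule, then added; OD600 lysis read after 3 h at 37 °C, greater lysis indicating less capsule.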

UPEC = test: Bacterial growth and viability without phage; assay type: cell-based, Escherichia coli
Method: Assay Set-up: This secondary assay was conducted in the 96 well plate format. […] Compounds were added to plates in a concentration dependent manner in the range of 100-0.39 μM, followed by addition of 100 μL of bacterial culture. Each concentration was tested in quadruplicate. 1% DMSO (final well concentration) was included. The plates were tape sealed and shaken vigorously for 1.5 hr. An initial OD600 reading at the time of infection was measured to identify compounds that cause growth retardation or bacterial killing in the absence of phage. Next, K1F phage (5 μL) was added to all of the test wells. The plates were resealed and shaken vigorously at 37° C., and measurements of OD600 for phage-mediated lysis were taken after 3 hr.
Assay Description: T7 phage-mediated lysis assay: This assay determined if the mechanism of action of the compound is inhibition of phage infectivity or replication. The T7 phage has a nearly identical genome to K1F, without encoding an endosialidase. Its cycle of replication is similar to that of K1F as well. However, T7 entry into E. coli is inhibited by K capsules. This secondary assay was conducted in the 96 well plate format. […] An initial OD600 reading was measured to identify compounds that cause growth retardation or bacterial killing in the absence of phage. […]

K1 antigen of UTI89 = test: K1 antigen whole-cell dot blot with anti-K1 serum; assay type: cell-based, Escherichia coli; settings: 100 μM
Method: K1 antigen dot blot. K1 antigen was detected by dot blot assays of culture extracts probed with anti-K1 H46 serum. The assay was performed as previously described. The experiment was repeated twice with similar results, and a representative dot blot is shown.

CCOc1ccc(-c2cc(NC(=O)c3c(F)cccc3F)c(C(=O)O)s2)cc1 [KUC107784N-02]
% Inh. (panel of 68 receptors; 10 µM): 6% | % Inh. (panel of 68 receptors; Calcium Channel L-Type, Benzothiazepine, rat, 10 μM): 2% | % Inh. (panel of 68 receptors; Calcium Channel L-Type, Dihydropyridine, rat, 10 μM): 32% | % Inh. (panel of 68 receptors; Dopamine D2S, hum, 10 μM): 4% | % Inh. (panel of 68 receptors; Dopamine D42, hum, 10 μM): 7% | % Inh. (panel of 68 receptors; GABAA, Flunitrazepam, Central, rat, 10 μM): 16% | % Inh. (panel of 68 receptors; GABAA, Muscimol, Central, rat, 10 μM): 9% | % Inh. (panel of 68 receptors; Glutamate, Kainate, rat, 10 μM): 11% | % Inh. (panel of 68 receptors; Glutamate, NMDA, Agonism, rat, 10 μM): 9% | % Inh. (panel of 68 receptors; Glutamate, NMDA, Glycine, rat, 10 μM): −1% | % Inh. (panel of 68 receptors; Glutamate, NMDA, Phencyclidine, rat, 10 μM): 6% | % Inh. (panel of 68 receptors; Imidazoline I2, Central, rat, 10 μM): −1% | % Inh. (panel of 68 receptors; Nicotinic Acetylcholine, hum, 10 μM): 13% | % Inh. (panel of 68 receptors; Phorbol Ester, mouse, 10 μM): −1% | % Inh. (panel of 68 receptors; Potassium Channel [KATP], ham, 10 μM): 9% | % Inh. (panel of 68 receptors; Purinergic P2X, rabbit, 10 μM): −2% | % Inh. (panel of 68 receptors; Purinergic P2Y, rat, 10 μM): 8% | % Inh. (panel of 68 receptors; Rolipram, rat, 10 μM): 9% | % Inh. (panel of 68 receptors; Thyroid Hormone, rat, 10 μM): −3% | % Inh. (panel of 68 receptors; Transporter, GABA, rat, 10 μM): 10%

CCOc1ccc(-c2cc(NC(=O)c3c(F)cccc3F)c(C(=O)O)s2)cc1 [ML317, 3-(2,6-difluorobenzamido)-5-(4-ethoxyphenyl)thiophene-2-carboxylic acid]
Plasma Protein Binding (% Bound) ([1]; 1 μM): 98.97 % Bound | Plasma Protein Binding (% Bound) ([1]; 10 μM): 99.31 % Bound | Capsular material, Alcian blue stained gel [2]: capsule was reduced in each strain | CC50 (in vitro): 26 µM | Inhibition across off-target panel (panel of 68 receptors; 10 μM): < 50% | Inhibition across off-target panel (panel of 68 receptors; 10 μM, listed as DU011, 10 µM): < 32% | Plasma Protein Binding (% Bound) ([3]; 1 μM): 99.68 % Bound | Plasma Protein Binding (% Bound) ([3]; 10 μM): 99.85 % Bound | Mode of action on MRSA (culture of bacteria from the experiments) [4]: bactericidal | Concentration sufficient to produce inhibition of MRSA ([4]; pH 5 and 5.5, TSB medium): 25 to 50 µM | Growth of MRSA ([4]; pH 7, 100 and 200 μM): inhibited growth | IC50 (E. coli K1 strain UTI89; Escherichia coli, commercial sample, SID 103147605, read-out: T7 phage assay IC50): < 0.39 µM | IC50 (E. coli K1 strain UTI89; Escherichia coli, first round of synthetic analogues, n = 2, read-out: T7 phage IC50): < 0.625 µM | IC50 (E. coli K1 strain UTI89; Escherichia coli, purchased analogue series, n = 2, read-out: T7 phage IC50): < 0.39 µM | IC50 (E. coli K1 strain UTI89; Escherichia coli, synthesized sample, SID 126497311, read-out: T7 phage assay IC50): < 0.625 µM | IC50 (E. coli K1 strain UTI89; listed as CID 23602075, read-out: T7 phage IC50): < 0.39 µM | Effect on in vitro growth and viability of UPEC (UPEC; absence of immune factors): no effect | Effect on bacterial cell viability (UPEC; highest tested concentration (100 μM)): no effect | Whole-cell anti-K1 dot blot reactivity (K1 antigen of UTI89): reduces K1 reactive material to levels comparable to those of genetic capsule mutants
